Results reported in US20160068527A1, “The Treatment of Inflammatory Disorders” (CRESSET BIOMOLECULAR DISCOVERY LTD., priority 2013, published 2016).

Experiments:
human mast cells [1] = experiment: Inhibition of Prostaglandin D2 release from human mast cells; assay type: cell-based; conditions: IgE challenged human cord derived mast cells, FIG. 2
Protocol: Human cord derived mast cells were cultured using the methodology described in Example 1. A commercially-available enzyme immunoassay (Cayman Chemical, Michigan, USA) was used to detect and quantify PGD2 released in the supernatant. The assay was conducted following the manufacturer protocols. A standard curve ranging from 78-10,000 pg/ml PGD2 was prepared using the reagent provided and the optical density was then read within 60 min in a microplate reader (at 405 nm).

[2] = tested on: ovalbumin induced murine model of asthma; experiment: Ovalbumin induced murine model of asthma, BALF eosinophils; assay type: in vivo, mouse; conditions: female BALB/c mice, 0.3 mg/kg intranasal, OVA challenge
Protocol: The effects of locally administered Nalidixic acid were studied in a mouse model of asthma. Female BALB/c mice, 8 animals per group, were sensitised to ovalbumin (OVA, 10 mg) by intra-peritoneal injection on days 1 and 14 of the study. On days 20, 21, 22 and 23 animals either received a challenge dose of ovalbumin (50 μg) to the lung given by intranasal administration or 50 μl of phosphate buffered saline (PBS, non-challenged group). Animals challenged with OVA also received either PBS vehicle or Nalidixic acid (0.3 mg/kg of body weight) given by intranasal administration for inhalation into the lung. This was administered 30 minutes prior to and 6 hours post each ovalbumin challenge on days 21 to 23 and in addition on day 24, the day between the last challenge and the terminal day of the experiment. Forty-eight hours after the final OVA challenge, mice were anaesthetised with a combination of ketamine hydrochloride (Narketan, 2 mg/mouse) and xylazine hydrochloride (Rompun, 0.07 mg/mice) and sacrificed by carotid exsanguination.
Bronchoalveolar lavage fluid (BAL) was obtained as follows. The trachea was cannulated. Phosphate Buffered Saline (PBS) was used as the lavage fluid, 3 volumes (0.4 ml; 0.3 ml; 0.3 ml; total 1 mL) were gently instilled and withdrawn on 3 consecutive occasions using a 1 ml BD syringe and then placed in an Eppendorf tube (˜1 ml). […]

human mast cells [3] = experiment: Release of Annexin-A1 from human mast cells (ELISA); assay type: cell-based; conditions: increasing concentrations of Nalidixic acid, conditioned medium, FIG. 3
Protocol: Human cord derived mast cells were cultured using the methodology described in Example 1. Anx-A1 protein levels in conditioned medium were determined by ELISA. Briefly, 96-well flat-bottomed ELISA plates (Greiner, Gloucestershire, UK) were coated with 1 μg anti-Anx-A1 mAb 1B in bicarbonate buffer (pH 9.6) and incubated overnight at 4° C. After washing in the bicarbonate buffer, potentially uncoated sites were blocked with 100 μL of PBS containing 1% BSA for 1h at room temperature. Sample aliquots (100 μL) or Anx-A1 standard solutions (prepared in 0.1% Tween-20 in PBS; concentration ranging between 10 and 0.001 μg/mL) were added for 1h at 37° C. After extensive washing in PBS/Tween-20, 100 μL of a polyclonal rabbit anti-human Anx-A1 serum (Zymed, Invitrogen, Paisley, UK; diluted 1:1000 in PBS/Tween-20) was added (1h at 37° C.) prior to incubation with donkey anti-rabbit 1 gG conjugated to alkaline phosphatase (1:1000; Sigma). The colour was developed by addition of 100 μL p-nitrophenyl phosphate (1 mg/mL in bicarbonate buffer, pH 9.6). Absorbance was read at 405 nm (with a 620-nm reference filter) in a microplate reader (Titertek™, Vienna, Austria). Anx-A1 levels in the study samples were read against the standard curve and expressed as ng/ml.

human mast cells [4] = experiment: Inhibition of histamine release from human mast cells; assay type: cell-based; conditions: IgE challenged human cord derived mast cells, 5 min incubation, FIG. 1
Protocol: Protocol: Human derived cord mast cells were cultured using the following method. Commercially available CD34^+ stem cells were cultured for […] in StemSpan (StemCell Technologies, Grenoble, France) serum-free medium supplemented with 100 ng/ml human SCF, 50 ng/ml IL-6 and 1 ng/ml IL-3, and 100 μg/ml penicillin/streptomycin (Peprotech, London, UK). After eight weeks, cells were cultured in StemSpan with 10% FCS. The cells were passaged into new medium every week. Cells were used for experiments between 11 and 18 weeks following confirmation by microscopic examination, c-kit and FcRε1 staining (by FACS), of mast cell morphology. For assessment of drug effects, Nalidixic Acid was incubated for 5 min with aliquots of 2×10^5 CDMCs (cord derived mast cells) cultured in 10% FCS medium. A commercially-available enzyme immunoassay was used to detect and quantify histamine released in the supernatant (SPI bio, Strasbourg, France). The assay was conducted following the manufacturer protocols. A standard curve ranging from 0.39-50 nM histamine was prepared using the reagent provided and the optical density was then read within 60 min in a microplate reader (at 405 nm). In some cases, the total cell content of histamine was established by freeze thawing of cells prior to challenge

phosphatase PP2A = phosphatase PP2A (Homo sapiens, UniProt P67775); experiment: Inhibition of the phosphatase PP2A; assay type: biochemical; conditions: statement in summary, no method or data
Chain of phosphatase PP2A (P67775 whole entry): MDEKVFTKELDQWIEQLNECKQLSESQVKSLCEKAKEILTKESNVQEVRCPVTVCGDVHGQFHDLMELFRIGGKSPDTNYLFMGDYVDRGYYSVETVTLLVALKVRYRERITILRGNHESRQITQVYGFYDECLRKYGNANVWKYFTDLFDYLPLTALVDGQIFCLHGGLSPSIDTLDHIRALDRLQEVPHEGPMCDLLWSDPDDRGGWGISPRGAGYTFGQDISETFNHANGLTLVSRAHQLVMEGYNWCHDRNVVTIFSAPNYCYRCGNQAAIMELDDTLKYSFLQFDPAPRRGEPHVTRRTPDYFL

CCn1cc(C(=O)O)c(=O)c2ccc(C)nc21 [Nalidixic acid]
inhibition of PGD2 release (human mast cells [1]): dose related inhibition | decrease in total BALF eosinophil counts compared with challenged vehicle treated animals ([2]; p<0.05, FIG. 4): 47% | reduction of percentage of eosinophils of the total BALF cellular count versus vehicle treated group ([2]; p<0.05, FIG. 5): 44% | Annexin-A1 released from human mast cells (human mast cells [3]): increase | inhibition of histamine release (human mast cells [4]): dose related inhibition | inhibition of the phosphatase PP2A (phosphatase PP2A): potent inhibitors
